In ChEMBL document CHEMBL5579815, “Novel angiogenesis inhibitors with superoxide anion radical amplification effect: Surmounting the Achilles' heels of angiogenesis inhibitors and photosensitizers” (Eur J Med Chem, 2024):
pIC50: −log10 of the molar value. Active and inactive are the calls of the source. No cut-off for these calls is given here.

Legend:
[1] = Induction of ROS generation in methanol solution assessed as increase in superoxide anion radical level by measuring increase in DHR123 fluorescence intensity at 10 uM irradiated with 650 nm 10 mW/cm2 light for upto 15 mins by DHR123 probe based fluorescence spectra analysis; assay type: functional
SK-MEL-28 [2] = assay: (§1) Cytotoxicity against human SK-MEL-28 cells assessed as reduction in cell viability preincubated for 24 hrs under hypoxic condition followed by media removal and irradiated with 650 nm 10 mW/cm2 light for 15 mins under hypoxic condition prior to media replacement and measured after 24 hrs by MTT assay; assay type: functional, cell-based; conditions: SK-MEL-28, light or radiation study
SK-MEL-28 [3] = assay: as §1, with “normoxic” for “hypoxic”; assay type: functional, cell-based; conditions: SK-MEL-28, light or radiation study
[4] = Induction of ROS generation in methanol solution assessed as reduction in DPBF absorption peak at 10 uM irradiated with 650 nm 10 mW/cm2 light for upto 9 mins by DPBF probe based UV-vis absorption spectra analysis; assay type: functional
[5] = Induction of ROS generation in methanol solution assessed as increase in singlet oxygen level by measuring reduction in ABDA absorption peak at 10 uM irradiated with 650 nm 10 mW/cm2 light for upto 9 mins by ABDA probe based UV-vis absorption spectra analysis; assay type: functional
SK-MEL-28 [6] = assay: as §1, with “viability at 0.008 to 1 uM” for “viability”; assay type: functional, cell-based; conditions: dose 0.008-1 µM
SK-MEL-28 [7] = assay: as §1, with “viability at 0.008 to 1 uM” for “viability”, “normoxic” for “hypoxic”; assay type: functional, cell-based; conditions: dose 0.008-1 µM
SK-MEL-28 [8] = assay: Cytotoxicity against human SK-MEL-28 cells assessed as reduction in cell viability by MTT assay; assay type: functional, cell-based

| Structure (SMILES) | Activity [1] | pIC50 (SK-MEL-28 [2]) | pIC50 (SK-MEL-28 [3]) | Activity [4] | Activity [5] | Activity (SK-MEL-28 [6]) | Activity (SK-MEL-28 [7]) | pIC50 (SK-MEL-28 [8]) |
| --- | --- | --- | --- | --- | --- | --- | --- | --- |
| CCN(CC)c1ccc2nc3c4ccccc4/c(=N\CCCCCCN)cc-3sc2c1 | Active | < 4.70 | 4.85 | Active | inactive |  |  |  |
| CCN(CC)c1ccc2nc3c4ccccc4/c(=N\CCCCCCn4cc(CCC(=O)Nc5cccc(-c6cn(Cc7ccc(-c8ccc(OC)nc8)cc7)nn6)c5)nn4)cc-3sc2c1 | Active |  |  | Active | inactive |  |  |  |
| CCN(CC)c1ccc2nc3c4ccccc4/c(=N\CCCCCCn4cc(CCCCNC(=O)c5cc(Oc6ccc(NC(=O)Nc7ccc(Cl)c(C(F)(F)F)c7)cc6)ccn5)nn4)cc-3sc2c1 | Active |  |  | Active | inactive | Active | Active |  |
| CCN(CC)c1ccc2nc3c4ccccc4/c(=N\CCCCCCNC(=O)CCC(=O)Nc4cccc(-c5cn(Cc6ccc(-c7ccc(OC)nc7)cc6)nn5)c4)cc-3sc2c1 | Active |  |  | Active | inactive |  |  |  |
| CCN(CC)c1ccc2nc3c4ccccc4/c(=N\CCCCCCn4cc(CNC(=O)c5cc(Oc6ccc(NC(=O)Nc7ccc(Cl)c(C(F)(F)F)c7)cc6)ccn5)nn4)cc-3sc2c1 | Active |  |  | Active | inactive | Active | Active |  |
| CCN(CC)c1ccc2nc3c4ccccc4/c(=N\CCCCCC(=O)NCCNC(=O)c4cc(Oc5ccc(NC(=O)Nc6ccc(Cl)c(C(F)(F)F)c6)cc5)ccn4)cc-3sc2c1 | Active |  |  | Active | inactive | Active | Active |  |
| CCN(CC)c1ccc2nc3c4ccccc4/c(=N\CCCCCC(=O)NCCCNC(=O)c4cc(Oc5ccc(NC(=O)Nc6ccc(Cl)c(C(F)(F)F)c6)cc5)ccn4)cc-3sc2c1 | Active |  |  | Active | inactive | Active | Active |  |
| CCN(CC)c1ccc2nc3c4ccccc4/c(=N\CCCCCC(=O)Nc4cccc(-c5cn(Cc6ccc(-c7ccc(OC)nc7)cc6)nn5)c4)cc-3sc2c1 | Active |  |  | Active | inactive |  |  |  |
| CCN(CC)c1ccc2nc3c4ccccc4/c(=N\CCCCCCNC(=O)CC(=O)Nc4cccc(-c5cn(Cc6ccc(-c7ccc(OC)nc7)cc6)nn5)c4)cc-3sc2c1 | Active |  |  | Active | inactive |  |  |  |
| CCN(CC)c1ccc2nc3c4ccccc4/c(=N\CCCCCCn4cc(CCCC(=O)Nc5cccc(-c6cn(Cc7ccc(-c8ccc(OC)nc8)cc7)nn6)c5)nn4)cc-3sc2c1 | Active |  |  | Active | inactive |  |  |  |
| CCN(CC)c1ccc2nc3c4ccccc4/c(=N\CCCCCCN=[N+]=[N-])cc-3sc2c1 | Active |  |  | Active | inactive |  |  |  |
| CCN(CC)c1ccc2nc3c4ccccc4/c(=N\CCCCCC(=O)O)cc-3sc2c1 | Active |  |  | Active | inactive |  |  |  |
| CCN(CC)c1ccc2nc3c4ccccc4/c(=N\CCCCCCn4cc(CCNC(=O)c5cc(Oc6ccc(NC(=O)Nc7ccc(Cl)c(C(F)(F)F)c7)cc6)ccn5)nn4)cc-3sc2c1 | Active |  |  | Active | inactive | Active | Active |  |
| CNC(=O)c1cc(Oc2ccc(NC(=O)Nc3ccc(Cl)c(C(F)(F)F)c3)cc2)ccn1 [SORAFENIB] |  |  |  |  |  |  |  | 5.02 |
